# What was measured:
# [1] = test system: Mice bearing FAP-positive and FAP-negative xenografts; test: PET/CT imaging: remaining PET activity in the mouse body; type: in vivo
# Protocol: The mice were euthanized by CO2 at 4 hours p.i., and static PET scans were acquired for 30 min.
# PET/CT images were acquired using β-CUBE PET scanner system (Molecubes, Gent, Belgium), with a spatial resolution of 0.85 mm and an axial field-of-view of 13 cm. Dynamic PET scans were acquired for 60 min. All PET scans were decay corrected and reconstructed into a 192×192×384 matrix by an ordered subsets maximization expectation (OSEM) algorithm using 30 iterations, a voxel size of 400×400×400 μm a 15 min per frame. CT data was used to apply attenuation correction on the PET data. The CT was imaged supine, head first, using the NanoSPECT/CTTM scanner (Bioscan Inc.). Topograms and helical CT scans of the whole mouse were first acquired using the following parameters: X-ray tube current: 177 μA, X-ray tube voltage 45 kVp, 90 seconds and 180 frames per rotation, pitch 1. CT images were reconstructed using CTReco (version r1.146), with a standard filtered back projection algorithm (exact cone beam) and post-filtered (RamLak, 100% frequency cut-off), resulting in a pixel size of 0.2 mm. Co-registered PET/CT images were visualized using maximum intensity projection (MIP) with VivoQuant software (version 4.0).
# [2] = test system: HT-1080.hFAP tumor-bearing mice; test: Biodistribution studies in xenografted mice; type: in vivo; conditions: for Biodistribution: HT-1080.wt: FAP-negative tumor; for Biodistribution: HT-1080.hFAP: FAP-positive tumor
# Protocol: The tumors were allowed to grow to an average volume of 100-200 mm^3.
# Biodistribution Studies: The xenografted mice were randomized (n=5 per group) and injected intravenously via the tail vein with the ^61Cu-labeled radioligands (100 μL, […], 0.8-1MBq). Mice were euthanized 1 h and 4 h p.i. by CO2 asphyxiation. Organs of interest and blood were collected, rinsed of excess blood, blotted dry, weighed, and counted in a […]. The samples were counted against a suitably diluted aliquot of the injected solution as the standard and the results are expressed as the percentage of the injected activity per gram of tissue (% I.A./g) ±SD.
# [3] = test system: HT-1080.hFAP (FAP-positive) cells; test: In vitro cellular uptake (cell surface-bound and internalized fractions); type: cell-based, human; conditions: 37° C., specific uptake (HT-1080.wt subtracted)
# Protocol: The cellular uptake was studied in vitro using intact cells seeded in 6-well plates overnight. […] At each investigated time point, the medium containing the unbound (free) radiotracer was removed, followed by two washing steps with ice-cold phosphate-buffered saline. The cells were then treated 2×5 min with ice-cold glycine solution (0.05 M, pH 2.8) to detach the cell surface-bound radiotracer (acid released). Afterwards, the cells containing the internalized radiotracer were detached with 1 M NaOH at 37° C. and collected for measurement. The amount of specific cell surface-bound and internalized radiotracer is expressed as percentage of the total applied activity, after subtracting the non-specific values.
# The cells were then preconditioned in 360 μL of assay medium (MEM medium without supplements) at 37° C. for 60 min. 40 μL of a 2 nM solution of ^61Cu-labeled radioligand was added and the cells were incubated at 37° C. The cellular uptake was interrupted at different time points (15 min, 1 hour and 4 hours), by washing twice with ice-cold PBS. Cell surface-bound radioligand was obtained by washing cells twice with ice-cold glycine buffer (pH 2.8), followed by a collection of the internalized fraction with 1 M NaOH. The activity in each fraction was measured in a […] (Cobra II).
smiles,measurement,setting,value
N#CC1CC(F)(F)CN1C(=O)CNC(=O)c1ccnc2ccc(NC(=O)CCC(=O)NCCNC(=O)CCC(C(=O)O)N3CCN(CC(=O)[O-])CCN(CC(=O)[O-])CC3)cc12.[61Cu+2] (stereo not drawn) [[^61Cu]Cu-NODAGA-1],"Retention in the body (remaining PET activity 4 h p.i.), in words",[1],highest retention in the body
same,Biodistribution: Spleen,"[2]; 1 hour p.i., i.v.",0.8 ± 0.1 % I.A./g
same,Biodistribution: Heart,"[2]; 4 hours p.i., i.v.",0.7 ± 0.1 % I.A./g
same,Biodistribution: Liver,"[2]; 4 hours p.i., i.v.",1.0 ± 0.2 % I.A./g
same,Biodistribution: Lung,"[2]; 4 hours p.i., i.v.",0.8 ± 0.2 % I.A./g
same,Biodistribution: Spleen,"[2]; 4 hours p.i., i.v.",0.5 ± 0.1 % I.A./g
same,Biodistribution: Stomach,"[2]; 4 hours p.i., i.v.",0.7 ± 0.1 % I.A./g
same,Biodistribution: HT-1080.wt,"[2]; 1 hour p.i., i.v.",4.5 ± 0.6 % I.A./g
same,Biodistribution: HT-1080.wt,"[2]; 4 hours p.i., i.v.",2.1 ± 0.5 % I.A./g
same,Biodistribution: HT-1080.hFAP,"[2]; 1 hour p.i., i.v.",12.6 ± 1.5 % I.A./g
same,Biodistribution: HT-1080.hFAP,"[2]; 4 hours p.i., i.v.",7.1 ± 3.0 % I.A./g
same,"Accumulation in FAP-positive (HT-1080.hFAP) tumor and murine-FAP-positive tissues, such as the bone marrow (bones)","[2]; xenografted mice, 1 h and 4 h p.i.",high accumulation
same,Cell surface fraction,[3]; 15 min,1.2 ± 0.3 % of the applied activity
same,Internalized fraction,[3]; 30 min,26.2 ± 3.5 % of the applied activity
same,Cell surface fraction,[3]; 60 min,1.4 ± 0.3 % of the applied activity
same,Internalized fraction,[3]; 60 min,29.9 ± 1.8 % of the applied activity
same,Cell surface fraction,[3]; 240 min,1.3 ± 0.2 % of the applied activity
same,Internalized fraction,[3]; 240 min,29.3 ± 1.8 % of the applied activity

# Reference: patent US20260061084A1, “FIBROBLAST ACTIVATION PROTEIN (FAP) INHIBITORS, FAP CONJUGATES, AND DIAGNOSTIC AND THERAPEUTIC USES THEREOF” (Nuclidium AG, priority 2022, published 2026)
